For data set [1] the following is noted: in vivo, po; for Cmax of free silybin / mean Cmax of total silybin (parent plus sulfate and glucuronide conjugates): rat. As for the experimental part:
The rats were randomly divided into three groups with six rats in each group. The oral administration dosages of silybin were 10 and 50 mg/10 ml/kg body weight without or with baicalein/tangeretin at the same dosage. Before experimentation, the animals were fasted for 24 hours with water ad libitum, and maintained at a temperature of 21° C. with 70% relative humidity and a 12 hour light/dark cycle. After oral administration, tail vein blood samples were collected (0.1 ml) into heparinized 0.65 ml micro-centrifuge tubes at the following time intervals: 0, 15, 30, 45, 60, 90, 120, 240, 360, 480, and 720 minutes. The blood samples then were immediately centrifuged at 4,000 rotations per minute (rpm) for 15 minutes at 4 degrees Celsius (° C.), and the resulting plasma was collected and stored at −80° C. until analysis.
To estimate the concentration of total glucuronide and sulfate conjugates of silybin in bio-samples including plasma, cell, and media, enzymatic hydrolysis with […] (8000 U/ml) and sulfatase (80 units per milliliter (U/ml)) was performed with 10 microliter (μl) aliquot of samples. The reactions were terminated by the addition of 40 μl of ice-cold acetonitrile containing 1% glacial acetic acid and internal standard NG (25 ng/ml). After centrifugation at 13,500 rotations per minute (rpm) for 15 minutes at 4° C., the supernatants were evaporated to dryness by nitrogen evaporator, and the residue was reconstituted with 60 μl of 30% methanol in water containing 1% ascorbic acid. An aliquot of 10 μl of the final solution was injected into LC-MS/MS for analysis. The completion of de-conjugation reaction was monitored by mass spectrometry. In parallel, 10 μl aliquots of samples without enzymes were treated with 40 μl of ice-cold acetonitrile containing 1% glacial acetic acid and naringenin (NG) (25 nanogram per milliliter (ng/ml)) to determine the concentration of free silybin. The total concentrations of glucuronides and sulfates in samples were estimated from the difference between the amount of silybin released by incubation with both glucuronidase and sulfatase and the amount of free silybin without enzymes incubation.
The analysis of silybin and total concentrations of glucuronides and sulfates was performed on an Agilent HP 1100 LC-MS system (Agilent, CA). A Waters ACQUITY UPLC® BEH C18 Column (1.7 μm, 2.1×50 mm, Waters Corp., Ireland) was used for detection with a C18 Security Guard cartridge (4×2.0 mm i.d., Phenomenex, Torrance, Calif.). Silybin A and silybin B were well separated using optimized gradient elution with methanol (mobile phase B) and 0.1% formic acid in water (mobile phase A) as mobile phase at a flow rate of 0.4 ml/min with a run time of 10 minutes. The gradient employed was as follows (time: mobile phase B percentage): 0 min: 25%, 6 minutes: 40%, 6.5 minutes: 25%.
Pharmacokinetic parameters including half-life (T1/2), volume of distribution (Vd), oral clearance (CL/F), and area under the concentration-time curve (AUC) were calculated using the software package PK Solutions 2.0.2 (SUMMIT Co., Ashland, Ohio, USA) with non-compartment analysis. One-way analysis of variance (ANOVA) was used when multiple groups were compared and the Bonferroni post hoc correction was used to accommodate multiple testing. The two-sided unpaired Student's t-test was used when treatments or differences between two groups were compared. […] During all statistical analyses, differences in group sizes were considered in the calculations. Differences were considered statistically significant when P<0.05. All data is presented as geometric mean±S.D.

The conditions of data set [2]: after oral administration; cited from earlier work.
Data set [3] concerns CCl4-induced acute liver injury. The experiment in a line: CCl4-induced acute liver injury in rats. In kind it is in vivo, rat. As for the experimental part:
Male SD rats were randomly divided into six groups: 1) Group I orally received blank vehicle for 7 days, and intraperitoneally (i.p.) injected with olive oil (2 ml/kg body weight) on day 7; 2) Group II orally received blank vehicle for 7 days, and injected with CCl4-olive oil mixture (40% CCl4, i.p., 2 ml/kg body weight) on day 7; 3) Group III was treated with silybin (100 mg/kg bodyweight, per os (p.o.) for 7 days, and injected with CCl4-olive oil mixture (40% CCl4, i.p., 2 ml/kg body weight) on day 7, 2 hour after administration of silybin; 4) Group IV was treated with silybin (100 mg/kg bodyweight, p.o.) and tangeretin (100 mg/kg bodyweight, p.o.) mixture for 7 days, and injected with CCl4-olive oil mixture (40% CCl4, i.p., 2 ml/kg body weight) on day 7, 2 hour after administration of the mixture; 5) Group V was treated with silybin (50 mg/kg bodyweight, p.o.) and tangeretin (50 mg/kg bodyweight, p.o.) mixture for 7 days, and injected with CCl4-olive oil mixture (40% CCl4, i.p., 2 ml/kg body weight) on day 7, 2 hour after administration of the mixture; 6) Group VI was treated with tangeretin (100 mg/kg bodyweight, p.o.) for 7 days, and injected with CCl4-olive oil mixture (40%, i.p., 2 ml/kg body weight) on day 7, 2 hour after administration of tangeretin. Model and control group were daily treated orally with blank solvent (35% PEG400: 15% Cremophor EL: 5% ethanol: 45% saline).
24 hours after the CCl4-induced toxic liver injury was initiated, rats were sacrificed under ether anesthesia. Blood was collected from the abdominal aorta for biochemical estimations. The liver was immediately removed and weighed. A large portion of the liver was snap-frozen in the liquid nitrogen and the remaining tissue was fixed in 10% buffer formalin, processed and embedded in paraffin for histological examination after hematoxylin and eosin (H&E) staining. Steatohepatitis was evaluated by level of alanine aminotransferase (ALT), aspartate aminotransferase (AST), triglycerides, total cholesterol and superoxide dismutase (SOD) using commercial kits (Nanjing Jiancheng Bioengineering Institute, Nanjing, China) according to manufacturer's instructions and histological assessment and scoring according to standardized criteria by a pathologist blind to the study.

As to `COc1cc([C@H]2Oc3cc([C@H]4Oc5cc(O)cc(O)c5C(=O)[C@@H]4O)ccc3O[C@@H]2CO)ccc1O` [silybin A], in data set [1], the “fraction existing as conjugates in rat plasma” value is recorded as “about 97%”; the “Cmax of free silybin” value stood at 26 ± 13 ng/mL; the “mean Cmax of total silybin (parent plus sulfate and glucuronide conjugates)” value was 1109 ± 158 ng/mL.

Consider `COc1cc([C@@H]2Oc3cc([C@H]4Oc5cc(O)cc(O)c5C(=O)[C@@H]4O)ccc3O[C@H]2CO)ccc1O` [silybin B], for which, in data set [1], the “fraction existing as conjugates in rat plasma” value is on record as about 99%; the “Cmax of free silybin” value worked out at 16 ± 5 ng/mL; the “mean Cmax of total silybin (parent plus sulfate and glucuronide conjugates)” value is 2478 ± 284 ng/mL.

As to `COc1cc(C2Oc3cc([C@H]4Oc5cc(O)cc(O)c5C(=O)[C@@H]4O)ccc3OC2CO)ccc1O` (stereo partly drawn) [silybin], in data set [2], the “share metabolized to glucuronide conjugates in human plasma” value is “about 55%” and the “share metabolized to sulfate conjugates in human plasma” value is given as “about 28%”. Besides, the “serum TG and TC levels” value in data set [3] (100 mg/kg of silybin, p<0.01) is “attenuated increases”. Further, in data set [3] (7 days oral pre-treatment, 24 hours after CCl4), the “CCl4-induced macroscopic and histopathological liver changes (H&E)” value is “less prominent”. The “CCl4-induced increase of liver weight and liver to body weight ratio” value in data set [3] (7 days oral pre-treatment, 24 hours after CCl4, p<0.05) was “negated”. Moreover, the “CCl4-induced increase of serum activity of ALT and AST” value in data set [3] (silybin 100 mg/kg for seven consecutive days) was “significantly prevented”.
